Here are results for two compounds from patent publication US9867802B2, “Method of treating Scedosporium spp. infection” (BIODIEM LIMITED, priority 2012, dated 2018).

Each structure is given as a SMILES string. Values after ≈ are worked out from the molar mass of the structure shown. Read-outs that look alike come from different tables or passages of the source.

The test system of one data set is Scedosporium prolificans. The data set can be described thus: In vitro susceptibility (MIC) against Scedosporium spp. Type of data set: cell-based. As to conditions: for MIC: Lomentospora prolificans, duplicate on two occasions, read-out: Arithmetic Mean MIC (mg/L) of 4 readings. Here is the method:
(§1) In vitro susceptibility to Compound (1) was assessed against Scedosporium spp. A stock solution of 1 mg/ml of Compound (1) was made in 100% DMSO. The stock was aliquoted and stored at −80° C.
(§2) Three strains Scedosporium prolificans and 3 strains of S. apiospermum/P. boydii were tested. Each isolate was tested in duplicate and on two separate occasions.

The subject of the next data set is S. apiospermum. Described as above. Type of data set: cell-based. As to the method: as §1, §2
The test system of the next data set is P. boydii. The description is as above. It counts as cell-based, Pseudallescheria boydii. As to conditions: strain P. boydii 01-10-1391979, duplicate on two occasions, read-out: Arithmetic Mean MIC (mg/L) of 4 readings. Here is the method: as §1, §2

Take `C/C(=C\c1ccc2c(c1)OCO2)[N+](=O)[O-]` [Compound (1), 3,4-methylenedioxy-β-methyl-β-nitrostyrene]: the MIC was determined as 2 mg/L (≈ 9.65 µM) with Scedosporium prolificans (strain S. prolificans 04-11-1472398); 1 mg/L (≈ 4.83 µM) in the data set with Scedosporium prolificans (strain S. prolificans (Austin Pathology)); 2 mg/L (≈ 9.65 µM) in the data set with Scedosporium prolificans (strain S. prolificans MB 10028425); 2 mg/L (≈ 9.65 µM) with S. apiospermum (read-out: Arithmetic Mean MIC (mg/L) of 4 readings, strain S. apsiopermum 04-10-2013595, duplicate on two occasions); 4 mg/L (≈ 19.3 µM) in the data set on S. apiospermum (strain S. apiospermum 04-10-1932310, duplicate on two occasions, read-out: Arithmetic Mean MIC (mg/L) of 4 readings); 4 mg/L (≈ 19.3 µM) in the data set on P. boydii. Also, the “Relative activity among Scedosporium spp.” value with Scedosporium prolificans (comparison of species tested in Table 1) is recorded as “most active against S. prolificans”.

On to `O=[N+]([O-])/C=C/c1ccc2c(c1)OCO2` [Compound (2), 3,4-methylenedioxy-β-nitrostyrene], for which the “Solubility in organic solvents” value in “Solubility profile” (acetone, alcohol, acetic acid and a majority of organic solvents) was “soluble”. Also, the Solubility in water result in the data set “Solubility profile” (water) is given as “non-soluble”.
